Where a name gives a salt, the structure may show the parent alone.
Key:
MAO-B enzyme = MAO-B enzyme (Homo sapiens (Human), UniProt P27338); experiment: Measurement of MAO-B inhibitory activity (MAO-Glo Assay); settings: read-out: MAO-B IC50 value;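 also: luminescence read-out, compound preincubated 10 min with enzyme then reacted 60 min at room temperature, inhibition relative to enzyme reaction without compound, blank lacking enzyme and compound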
Procedure: The MAO-B inhibitory activity evaluation described below followed the protocol of MAO-Glo (registered trademark) Assay of Promega KK.
A test compound dissolved in 4% DMSO was added by 12.5 μL to 25 μL reaction solution (100 mM HEPES (pH 7.5), 5% glycerol, 10% DMSO) containing 400 ng of MAO-B enzyme (Sigma-Aldrich Co. LLC.), and the mixture was reacted at room temperature for 10 min. […] After reaction at room temperature for 60 min, Luciferine detection reagent (Promega KK) (50 μL) was added to terminate the reaction. After reaction at room temperature for 20 min with stirring, the luminescence was measured by Envision (PerkinElmer). The MAO-B inhibitory rate (%) of the test compound was calculated by the following formula. inhibitory rate(%)=(1−(test compound count−blank)÷(control−blank))×100
The count of the MAO-B enzyme reaction mixture under compound non-addition conditions is indicated as control, and the count under compound non-addition and MAO-B enzyme non-addition conditions is indicated as blank.

MAO-A enzyme = MAO-A enzyme (Homo sapiens (Human), UniProt P21397); experiment: Measurement of MAO-A inhibitory activity (MAO-Glo Assay); assay type: biochemical
Chain of MAO-A enzyme (P21397 whole entry): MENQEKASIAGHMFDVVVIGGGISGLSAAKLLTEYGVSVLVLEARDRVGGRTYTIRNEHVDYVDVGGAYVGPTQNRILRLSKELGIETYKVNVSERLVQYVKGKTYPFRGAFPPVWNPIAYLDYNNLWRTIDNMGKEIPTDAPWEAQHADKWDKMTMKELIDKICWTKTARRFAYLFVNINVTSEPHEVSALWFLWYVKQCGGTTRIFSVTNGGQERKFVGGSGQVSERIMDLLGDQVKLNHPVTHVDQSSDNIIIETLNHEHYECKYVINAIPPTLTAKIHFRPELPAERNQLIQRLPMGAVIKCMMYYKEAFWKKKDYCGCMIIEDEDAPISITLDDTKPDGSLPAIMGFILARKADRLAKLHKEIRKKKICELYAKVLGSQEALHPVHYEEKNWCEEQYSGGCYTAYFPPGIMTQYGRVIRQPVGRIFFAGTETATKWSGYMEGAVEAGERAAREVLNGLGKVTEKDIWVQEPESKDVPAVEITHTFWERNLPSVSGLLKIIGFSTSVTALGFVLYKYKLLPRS

human LSD1(172-833) = human LSD1(172-833) (Homo sapiens (Human), UniProt O60341); experiment: Measurement of LSD1 inhibitory activity (time-resolved fluorescence, biotin-histone H3 mono methylated K4 peptide); assay type: biochemical
Summary of the method: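 Remaining signal detected by TR-FRET after 60 min with europium anti-histone H3 antibody and streptavidin-XL665 in potassium fluoride/0.1% BSA.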

Chain of MAO-B enzyme (P27338 whole entry): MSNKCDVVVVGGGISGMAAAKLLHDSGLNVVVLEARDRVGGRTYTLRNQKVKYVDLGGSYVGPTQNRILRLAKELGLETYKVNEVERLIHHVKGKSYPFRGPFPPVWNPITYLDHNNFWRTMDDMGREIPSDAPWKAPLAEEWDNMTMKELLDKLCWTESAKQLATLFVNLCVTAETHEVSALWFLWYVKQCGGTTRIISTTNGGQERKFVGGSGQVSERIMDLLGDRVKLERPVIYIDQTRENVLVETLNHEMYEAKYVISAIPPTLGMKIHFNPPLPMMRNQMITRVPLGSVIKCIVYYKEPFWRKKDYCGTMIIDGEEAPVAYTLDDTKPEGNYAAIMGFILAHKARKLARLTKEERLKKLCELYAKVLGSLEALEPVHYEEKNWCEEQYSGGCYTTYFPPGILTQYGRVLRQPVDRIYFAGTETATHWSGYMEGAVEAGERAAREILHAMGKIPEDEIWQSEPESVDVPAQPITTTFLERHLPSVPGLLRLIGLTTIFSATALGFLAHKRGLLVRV

SMILES | IC50 (MAO-B enzyme) | IC50 (MAO-A enzyme) | IC50 (human LSD1(172-833))
O=C(Nc1ccc(OC(F)(F)F)cc1)c1cccc([C@@H]2C[C@H]2NCC2CC2)c1 (relative stereo) [Example 123, 3-(trans-2-((cyclopropylmethyl)amino)cyclopropyl)-N-(4-(trifluoromethoxy)phenyl)benzamide trifluoroacetate] | > 10 µM | > 10 µM | < 0.1 µM
CS(=O)(=O)c1ccc(NC(=O)c2cccc([C@@H]3C[C@H]3NCC3CC3)c2)cc1 (relative stereo) [Example 124, 3-(trans-2-((cyclopropylmethyl)amino)cyclopropyl)-N-(4-(methylsulfonyl)phenyl)benzamide trifluoroacetate] | > 10 µM | > 10 µM | < 0.1 µM
O=C(Nc1ccc(-c2cn3c(n2)SCC3)cc1)c1cccc([C@@H]2C[C@H]2NCC2CC2)c1 (relative stereo) [Example 127, 3-(trans-2-((cyclopropylmethyl)amino)cyclopropyl)-N-(4-(2,3-dihydroimidazo[2,1-b][1,3]thiazol-6-yl)phenyl)benzamide bis(trifluoroacetate)] | > 10 µM | > 10 µM | < 0.1 µM
O=C(Nc1ccc(Cc2ccccc2)cc1)c1cccc([C@@H]2C[C@H]2NCC2CC2)c1 (relative stereo) [Example 129, N-(4-benzylphenyl)-3-(trans-2-((cyclopropylmethyl)amino)cyclopropyl)benzamide trifluoroacetate] | > 10 µM | > 10 µM | < 0.1 µM
Cc1cc(C)nc(Sc2cccc(NC(=O)c3cccc([C@@H]4C[C@H]4NCC4CC4)c3)c2)n1 (relative stereo) [Example 132, 3-(trans-2-((cyclopropylmethyl)amino)cyclopropyl)-N-(3-((4,6-dimethylpyrimidin-2-yl)sulfanyl)phenyl)benzamide trifluoroacetate] | > 10 µM | > 10 µM | < 0.1 µM
O=C(Nc1ccc(Oc2ccc(F)cc2)nc1)c1cccc([C@@H]2C[C@H]2NCC2CC2)c1 (relative stereo) [Example 137, 3-(trans-2-((cyclopropylmethyl)amino)cyclopropyl)-N-(6-(4-fluorophenoxyl)pyridin-3-yl)benzamide bis(trifluoroacetate)] | > 10 µM | > 10 µM | < 0.1 µM
O=C(Nc1ccc2nccnc2c1)c1cccc([C@@H]2C[C@H]2NCC2CC2)c1 (relative stereo) [Example 143, 3-(trans-2-((cyclopropylmethyl)amino)cyclopropyl)-N-(quinoxalin-6-yl)benzamide bis(trifluoroacetate)] | > 10 µM | 2.1 µM | < 0.1 µM
O=C(Nc1ccc2ncsc2c1)c1cccc([C@@H]2C[C@H]2NCC2CC2)c1 (relative stereo) [Example 144, N-(1,3-benzothiazol-6-yl)-3-(trans-2-((cyclopropylmethyl)amino)cyclopropyl)benzamide trifluoroacetate] | > 10 µM | > 10 µM | < 0.1 µM
O=C(Nc1ccc2[nH]ncc2c1)c1cccc([C@@H]2C[C@H]2NCC2CC2)c1 (relative stereo) [Example 146, 3-(trans-2-((cyclopropylmethyl)amino)cyclopropyl)-N-(1H-indazol-5-yl)benzamide trifluoroacetate] | > 10 µM | > 10 µM | < 0.1 µM
O=C(Nc1ccc2[nH]c(=O)sc2c1)c1cccc([C@@H]2C[C@H]2NCC2CC2)c1 (relative stereo) [Example 147, 3-(trans-2-((cyclopropylmethyl)amino)cyclopropyl)-N-(2-oxo-2,3-dihydro-1,3-benzothiazol-6-yl)benzamide trifluoroacetate] | > 10 µM | > 10 µM | < 0.1 µM
